In ChEMBL document CHEMBL5727929, “CXCR4 inhibitors and uses thereof” (2020) one finds IC50 data, which are given here for 1 compound.

This experiment can be described thus: Binding Inhibition Assay: Jurkat cells expressing CXCR4 were washed once with assay buffer (Hanks' balanced salt solution with 20 mM HEPES buffer and 0.2% bovine serum albumin, pH 7.4) and then incubated for 15 min at room temperature with the test compounds diluted in assay buffer at dose-dependent concentrations. Subsequently, CXCL12-AF647 (25 ng/mL) was added to the compound-incubated cells. The cells were incubated for 30 min at room temperature. Thereafter, the cells were washed twice in assay buffer, fixed in 1% paraformaldehyde in PBS, and analyzed on the FL4 channel of a FACSCalibur flow cytometer equipped with a 635-nm red diode lase. On the technique in general: Flow cytometry measures light scatter and fluorescence of single cells or particles in a stream.

Broadly, the IC50 is the concentration that gives 50% inhibition.

On to `CC[C@H](O)c1c([C@H]2CCC[C@@H](c3ncccc3C)N2C)nc2cccc(N3CCN(C)CC3)n12`, for which the IC50 fell in the range of 0.01 to 100 nM.
